Test results: patent US8703961B2, “Thiazole derivatives for the treatment of diseases such as cancer” (Merck Patent GmbH, priority 2009, dated 2014)
pIC50: −log10 of the molar value.

Assays:
Assay in all cases: filter binding kinase assay
Assay type in all cases: biochemical
NEK2 (Nek2A) = molecular target: T1, NEK2 (Nek2A) (Homo sapiens, UniProt P51955); conditions: for pIC50: derived from % inhibition at 1 μM
T1 construct: purchased
T1 sequence (P51955 1-445): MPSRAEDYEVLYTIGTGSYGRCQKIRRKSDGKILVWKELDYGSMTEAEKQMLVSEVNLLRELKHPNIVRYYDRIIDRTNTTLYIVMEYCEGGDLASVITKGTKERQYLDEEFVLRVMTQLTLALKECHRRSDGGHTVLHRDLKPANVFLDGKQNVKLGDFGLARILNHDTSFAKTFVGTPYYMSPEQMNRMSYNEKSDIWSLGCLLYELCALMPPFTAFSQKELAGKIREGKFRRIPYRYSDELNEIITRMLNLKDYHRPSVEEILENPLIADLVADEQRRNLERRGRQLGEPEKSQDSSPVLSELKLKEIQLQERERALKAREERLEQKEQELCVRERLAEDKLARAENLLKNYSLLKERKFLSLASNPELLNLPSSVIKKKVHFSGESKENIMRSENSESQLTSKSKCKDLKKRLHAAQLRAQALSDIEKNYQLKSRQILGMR
Summary of the method: (§1)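 Kinase activity is measured at room temperature by filter binding, with incorporated radiolabel counted after acid termination. A 5-minute preincubation of compound, enzyme and substrate precedes addition of ATP from a kinase-dependent stock (5, 20 or 50 […]).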

PIM3 = molecular target: T2, PIM3 (Homo sapiens, UniProt Q86V86); conditions: derived from % inhibition at 1 μM
T2 construct: purchased
Summary of the method: as §1

ROCK2 (Rock II) = molecular target: T3, ROCK2 (Rock II) (Homo sapiens, UniProt O75116); conditions: for pIC50: derived from % inhibition at 1 μM
T3 construct: purchased
Summary of the method: as §1

MKNK1 = molecular target: T4, MKNK1 (Homo sapiens, UniProt Q9BUB5); conditions: derived from % inhibition at 1 μM
T4 construct: purchased
Summary of the method: as §1

STK3 = molecular target: T5, STK3 (Homo sapiens, UniProt Q13188); conditions: derived from % inhibition at 1 μM
T5 construct: purchased
T5 sequence (Q13188 1-491): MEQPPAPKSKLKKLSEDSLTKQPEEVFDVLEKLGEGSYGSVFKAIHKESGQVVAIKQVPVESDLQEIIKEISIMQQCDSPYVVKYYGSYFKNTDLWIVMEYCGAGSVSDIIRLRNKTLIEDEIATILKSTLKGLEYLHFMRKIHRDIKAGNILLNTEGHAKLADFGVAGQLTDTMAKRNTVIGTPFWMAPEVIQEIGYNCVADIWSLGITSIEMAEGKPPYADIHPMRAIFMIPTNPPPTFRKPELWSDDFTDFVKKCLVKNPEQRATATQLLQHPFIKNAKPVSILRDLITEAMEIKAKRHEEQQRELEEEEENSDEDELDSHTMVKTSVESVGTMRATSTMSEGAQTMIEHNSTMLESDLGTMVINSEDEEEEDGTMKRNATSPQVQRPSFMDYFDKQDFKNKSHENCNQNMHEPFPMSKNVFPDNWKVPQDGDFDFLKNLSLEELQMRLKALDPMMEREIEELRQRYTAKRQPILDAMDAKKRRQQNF
Summary of the method: as §1

CDK2 = molecular target: T6, CDK2 (Homo sapiens, UniProt P24941); conditions: for pIC50: derived from % inhibition at 1 μM; for remaining activity at 1 µM: read-out: residual kinase activity CDK2
T6 construct: purchased
Summary of the method: as §1

DYRK3 = molecular target: T7, DYRK3 (Homo sapiens, UniProt O43781); conditions: derived from % inhibition at 1 μM
T7 construct: purchased
T7 sequence (O43781 1-588): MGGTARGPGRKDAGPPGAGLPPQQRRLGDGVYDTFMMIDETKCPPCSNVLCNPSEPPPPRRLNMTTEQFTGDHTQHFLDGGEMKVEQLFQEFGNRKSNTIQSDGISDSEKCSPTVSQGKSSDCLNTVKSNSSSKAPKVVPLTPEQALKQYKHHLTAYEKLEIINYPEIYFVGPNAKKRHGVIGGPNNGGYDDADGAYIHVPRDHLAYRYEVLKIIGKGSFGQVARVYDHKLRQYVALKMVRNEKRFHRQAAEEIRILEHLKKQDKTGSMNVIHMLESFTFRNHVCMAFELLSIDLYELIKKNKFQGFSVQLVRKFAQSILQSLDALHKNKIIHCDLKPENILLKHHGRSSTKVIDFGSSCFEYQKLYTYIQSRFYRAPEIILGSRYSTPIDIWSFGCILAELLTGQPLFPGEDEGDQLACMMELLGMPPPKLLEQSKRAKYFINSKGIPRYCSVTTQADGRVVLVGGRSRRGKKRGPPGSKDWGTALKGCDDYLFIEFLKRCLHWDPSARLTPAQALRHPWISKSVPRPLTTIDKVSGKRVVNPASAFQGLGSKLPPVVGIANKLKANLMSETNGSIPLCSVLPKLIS
Summary of the method: as §1

T4 sequence (Q9BUB5 whole entry, species assumed): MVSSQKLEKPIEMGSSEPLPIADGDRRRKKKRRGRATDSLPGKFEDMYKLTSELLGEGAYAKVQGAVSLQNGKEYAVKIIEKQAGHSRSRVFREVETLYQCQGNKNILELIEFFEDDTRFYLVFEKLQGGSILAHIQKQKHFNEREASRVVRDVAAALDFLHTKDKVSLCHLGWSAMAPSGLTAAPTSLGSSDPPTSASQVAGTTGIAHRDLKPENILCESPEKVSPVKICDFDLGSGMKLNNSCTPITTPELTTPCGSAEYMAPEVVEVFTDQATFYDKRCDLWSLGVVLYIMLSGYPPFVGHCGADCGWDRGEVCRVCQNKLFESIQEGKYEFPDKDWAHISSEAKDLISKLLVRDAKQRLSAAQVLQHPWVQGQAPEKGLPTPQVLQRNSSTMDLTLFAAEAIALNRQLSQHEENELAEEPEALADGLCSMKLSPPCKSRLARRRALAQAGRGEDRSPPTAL
T3 sequence (O75116 whole entry, species assumed): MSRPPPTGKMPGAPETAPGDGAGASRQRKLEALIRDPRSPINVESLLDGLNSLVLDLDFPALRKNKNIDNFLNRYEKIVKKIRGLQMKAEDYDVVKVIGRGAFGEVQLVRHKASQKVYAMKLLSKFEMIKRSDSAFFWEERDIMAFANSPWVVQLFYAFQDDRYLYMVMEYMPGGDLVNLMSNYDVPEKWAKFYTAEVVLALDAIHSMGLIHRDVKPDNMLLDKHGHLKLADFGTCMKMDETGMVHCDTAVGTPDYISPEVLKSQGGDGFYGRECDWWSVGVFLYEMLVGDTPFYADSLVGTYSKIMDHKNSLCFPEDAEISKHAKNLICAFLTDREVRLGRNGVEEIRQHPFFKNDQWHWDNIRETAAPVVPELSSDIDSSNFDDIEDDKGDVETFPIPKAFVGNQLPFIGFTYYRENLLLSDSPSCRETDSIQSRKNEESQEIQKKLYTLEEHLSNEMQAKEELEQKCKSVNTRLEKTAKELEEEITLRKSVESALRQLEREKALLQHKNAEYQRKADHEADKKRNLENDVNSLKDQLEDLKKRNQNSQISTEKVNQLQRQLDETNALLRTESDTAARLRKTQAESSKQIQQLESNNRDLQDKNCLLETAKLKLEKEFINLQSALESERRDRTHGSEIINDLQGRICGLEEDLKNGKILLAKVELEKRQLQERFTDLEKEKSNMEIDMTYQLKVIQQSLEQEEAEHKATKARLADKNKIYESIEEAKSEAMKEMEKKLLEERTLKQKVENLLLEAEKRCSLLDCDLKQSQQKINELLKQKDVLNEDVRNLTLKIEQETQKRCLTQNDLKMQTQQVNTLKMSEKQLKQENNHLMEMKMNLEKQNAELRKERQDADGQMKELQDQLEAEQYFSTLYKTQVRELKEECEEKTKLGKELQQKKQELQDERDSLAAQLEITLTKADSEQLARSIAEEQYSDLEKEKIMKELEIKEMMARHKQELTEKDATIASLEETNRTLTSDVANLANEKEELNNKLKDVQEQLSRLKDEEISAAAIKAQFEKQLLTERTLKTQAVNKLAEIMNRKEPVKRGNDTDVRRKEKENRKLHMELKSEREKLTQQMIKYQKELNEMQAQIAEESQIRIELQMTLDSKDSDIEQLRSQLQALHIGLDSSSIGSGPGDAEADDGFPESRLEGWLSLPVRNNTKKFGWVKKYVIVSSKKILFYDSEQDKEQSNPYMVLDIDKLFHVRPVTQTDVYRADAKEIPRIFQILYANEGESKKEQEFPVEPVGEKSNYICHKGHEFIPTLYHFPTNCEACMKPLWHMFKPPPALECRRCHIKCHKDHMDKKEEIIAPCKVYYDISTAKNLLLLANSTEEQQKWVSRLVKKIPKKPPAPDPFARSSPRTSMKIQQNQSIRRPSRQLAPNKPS

Row | SMILES | pIC50 (NEK2 (Nek2A)) | pIC50 (PIM3) | pIC50 (ROCK2 (Rock II)) | remaining activity at 1 µM (ROCK2 (Rock II); read-out: residual kinase activity Rock II) [%] | pIC50 (MKNK1) | pIC50 (STK3) | pIC50 (CDK2) | remaining activity at 1 µM (CDK2) [%] | pIC50 (DYRK3) | remaining activity at 1 µM (NEK2 (Nek2A); read-out: residual kinase activity Nek2A) [%]
1 | c1ccc(Cc2c[nH]c3ncsc23)cc1 [Compound A7, 6-benzyl-4H-pyrrolo[2,3-d]thiazole] | < 6.00 | 5.00 to 6.00 | 6.00 to 8.00 | 36 | < 6.00 | 5.00 to 6.00 | 6.00 to 8.00 | 41 | 4.00 to 5.00 | –
2 | Nc1ncsc1C#Cc1cnc2[nH]ccc2c1 [Compound A22, 5-(1H-pyrrolo[2,3-b]pyridin-5-ylethynyl)thiazol-4-ylamine] | < 6.00 | 4.00 to 5.00 | < 6.00 | – | 4.00 to 5.00 | 4.00 to 5.00 | 5.00 to 6.00 | 52 | 4.00 to 5.00 | –
3 | Nc1ncsc1C#Cc1cccc(O)c1 [Compound A27, 3-(4-aminothiazol-5-ylethynyl)phenol] | 5.00 to 6.00 | 5.00 to 6.00 | 4.00 to 5.00 | – | 4.00 to 5.00 | 5.00 to 6.00 | 4.00 to 5.00 | – | 4.00 to 5.00 | 59
4 | CC(C)(C)OC(=O)Nc1ncsc1C#CCN1C(=O)c2ccccc2C1=O [Compound A26, tert-butyl{5-[3-(1,3-dioxo-1,3-dihydroisoindol-2-yl)prop-1-ynyl]-thiazol-4-yl}carbamate] | 5.00 to 6.00 | < 6.00 | < 6.00 | – | < 6.00 | < 6.00 | 6.00 to 8.00 | 28 | 5.00 to 6.00 | –
5 | CC(C)(C)OC(=O)Nc1nc(-c2ccncc2)sc1C#CCN1CCOCC1 [Compound A25, tert-butyl[5-(3-morpholin-4-ylprop-1-ynyl)-2-pyridin-4-ylthiazol-4-yl]-carbamate] | 5.00 to 6.00 | < 6.00 | 4.00 to 5.00 | – | < 6.00 | < 6.00 | 4.00 to 5.00 | – | 4.00 to 5.00 | –
